Data reported in ChEMBL document CHEMBL3885881, “DrugMatrix”.

Species on record: Rattus norvegicus
Experiment: DrugMatrix - Regimen: Daily Repeat
Type: toxicity, organism-based, Sprague-Dawley
Design: regimen Daily Repeat, gender Male, age 6-8 weeks
Details: in vivo, po, route oral GAVAGE, […]; for ABSOLUTE BASOPHIL / ABSOLUTE EOSINOPHIL / ABSOLUTE LYMPHOCYTE / ABSOLUTE MONOCYTE / ABSOLUTE SEGMENTED NEUTROPHIL / BASOPHIL / EOSINOPHIL / ERYTHROCYTE COUNT / HEMATOCRIT / HEMOGLOBIN / LEUKOCYTE COUNT / LYMPHOCYTE / MEAN CORPUSCULAR HEMOGLOBIN / MEAN CORPUSCULAR HEMOGLOBIN CONCENTRATION / MEAN CORPUSCULAR VOLUME / MONOCYTE / NEUTROPHIL / NUCLEATED RED BLOOD CELLS / PLATELET COUNT: tissue Blood; for ALANINE AMINOTRANSFERASE / ALBUMIN / ALKALINE PHOSPHATASE / ASPARTATE AMINOTRANSFERASE / BLOOD UREA NITROGEN / CARBON DIOXIDE / CHLORIDE / CHOLESTEROL / CREATINE PHOSPHOKINASE / CREATININE / GLUCOSE / LACTATE DEHYDROGENASE / LIPASE / PHOSPHORUS / POTASSIUM / SODIUM / TOTAL BILIRUBIN / TOTAL PROTEIN / URIC ACID: tissue Plasma
[1] = 0 mg/kg, 72 h, dose level Control, time 3 day
[2] = 0 mg/kg, 120 h, dose level Control, time 5 day
[3] = 10 mg/kg, 72 h, dose level Low, time 3 day
[4] = 10 mg/kg, 120 h, dose level Low, time 5 day

OC(Cn1cncn1)(Cn1cncn1)c1ccc(F)cc1F [FLUCONAZOLE]
ABSOLUTE BASOPHIL [1]: 0 CELLS/uL | ABSOLUTE EOSINOPHIL [1]: 104.17 CELLS/uL | ABSOLUTE LYMPHOCYTE [1]: 14547 CELLS/uL | ABSOLUTE MONOCYTE [1]: 292 CELLS/uL | ABSOLUTE SEGMENTED NEUTROPHIL [1]: 1640.17 CELLS/uL | BASOPHIL [1]: 0% | EOSINOPHIL [1]: 0.67% | ERYTHROCYTE COUNT [1]: 5.35 x10E6/uL | HEMATOCRIT [1]: 33.67% | HEMOGLOBIN [1]: 13.38 G/DL | LEUKOCYTE COUNT [1]: 16.58 x10E3/uL | LYMPHOCYTE [1]: 87.5% | MEAN CORPUSCULAR HEMOGLOBIN [1]: 25.05 pg | MEAN CORPUSCULAR HEMOGLOBIN CONCENTRATION [1]: 39.78 G/DL | MEAN CORPUSCULAR VOLUME [1]: 62.97 fL | MONOCYTE [1]: 1.83% | NEUTROPHIL [1]: 10% | NUCLEATED RED BLOOD CELLS [1]: 0 /100WBC | PLATELET COUNT [1]: 1274.5 x10E3/uL | ALANINE AMINOTRANSFERASE [1]: 76.83 u/L | ALBUMIN [1]: 3.97 G/DL | ALKALINE PHOSPHATASE [1]: 347 u/L | ASPARTATE AMINOTRANSFERASE [1]: 97.17 u/L | BLOOD UREA NITROGEN [1]: 14.33 mg/dL | CARBON DIOXIDE [1]: 25.5 mmol/L | CHLORIDE [1]: 100.33 MEQ/L | CHOLESTEROL [1]: 68.67 mg/dL | CREATINE PHOSPHOKINASE [1]: 659.17 u/L | CREATININE [1]: 0.32 mg/dL | GLUCOSE [1]: 160.67 mg/dL | LACTATE DEHYDROGENASE [1]: 271.5 u/L | LIPASE [1]: 11.67 u/L | PHOSPHORUS [1]: 10.65 mg/dL | POTASSIUM [1]: 5.95 MEQ/L | SODIUM [1]: 139.65 MEQ/L | TOTAL BILIRUBIN [1]: 0.2 mg/dL | TOTAL PROTEIN [1]: 5.72 G/DL | URIC ACID [1]: 1.37 mg/dL | ABSOLUTE BASOPHIL [2]: 0 CELLS/uL | ABSOLUTE EOSINOPHIL [2]: 331.5 CELLS/uL | ABSOLUTE LYMPHOCYTE [2]: 15021.67 CELLS/uL | ABSOLUTE MONOCYTE [2]: 376.5 CELLS/uL | ABSOLUTE SEGMENTED NEUTROPHIL [2]: 3070.33 CELLS/uL | BASOPHIL [2]: 0% | EOSINOPHIL [2]: 1.83% | ERYTHROCYTE COUNT [2]: 5.24 x10E6/uL | HEMATOCRIT [2]: 33.22% | HEMOGLOBIN [2]: 13.2 G/DL | LEUKOCYTE COUNT [2]: 18.8 x10E3/uL | LYMPHOCYTE [2]: 79.67% | MEAN CORPUSCULAR HEMOGLOBIN [2]: 25.17 pg | MEAN CORPUSCULAR HEMOGLOBIN CONCENTRATION [2]: 39.73 G/DL | MEAN CORPUSCULAR VOLUME [2]: 63.38 fL | MONOCYTE [2]: 2% | NEUTROPHIL [2]: 16.5% | NUCLEATED RED BLOOD CELLS [2]: 0 /100WBC | PLATELET COUNT [2]: 1142.67 x10E3/uL | ALANINE AMINOTRANSFERASE [2]: 52.5 u/L | ALBUMIN [2]: 3.9 G/DL | ALKALINE PHOSPHATASE [2]: 284.5 u/L | ASPARTATE AMINOTRANSFERASE [2]: 81.33 u/L | BLOOD UREA NITROGEN [2]: 16 mg/dL | CARBON DIOXIDE [2]: 25.33 mmol/L | CHLORIDE [2]: 99.5 MEQ/L | CHOLESTEROL [2]: 74.83 mg/dL | CREATINE PHOSPHOKINASE [2]: 448.33 u/L | CREATININE [2]: 0.37 mg/dL | GLUCOSE [2]: 164.17 mg/dL | LACTATE DEHYDROGENASE [2]: 290.67 u/L | LIPASE [2]: 6.83 u/L | PHOSPHORUS [2]: 11.5 mg/dL | POTASSIUM [2]: 6.28 MEQ/L | SODIUM [2]: 139.5 MEQ/L | TOTAL BILIRUBIN [2]: 0.13 mg/dL | TOTAL PROTEIN [2]: 5.55 G/DL | URIC ACID [2]: 1.12 mg/dL | ABSOLUTE BASOPHIL [3]: 0 CELLS/uL | ABSOLUTE EOSINOPHIL [3]: 105 CELLS/uL | ABSOLUTE LYMPHOCYTE [3]: 3531.33 CELLS/uL | ABSOLUTE MONOCYTE [3]: 187.33 CELLS/uL | ABSOLUTE SEGMENTED NEUTROPHIL [3]: 2209.67 CELLS/uL | BASOPHIL [3]: 0% | EOSINOPHIL [3]: 1.67% | ERYTHROCYTE COUNT [3]: 5.95 x10E6/uL | HEMATOCRIT [3]: 39.17% | HEMOGLOBIN [3]: 15.1 G/DL | LEUKOCYTE COUNT [3]: 6.03 x10E3/uL | LYMPHOCYTE [3]: 58% | MEAN CORPUSCULAR HEMOGLOBIN [3]: 25.67 pg | MEAN CORPUSCULAR HEMOGLOBIN CONCENTRATION [3]: 38.63 G/DL | MEAN CORPUSCULAR VOLUME [3]: 66.27 fL | MONOCYTE [3]: 3% | NEUTROPHIL [3]: 37.33% | NUCLEATED RED BLOOD CELLS [3]: 0 /100WBC | PLATELET COUNT [3]: 1032.33 x10E3/uL | ALANINE AMINOTRANSFERASE [3]: 59.33 u/L | ALBUMIN [3]: 4.63 G/DL | ALKALINE PHOSPHATASE [3]: 452.67 u/L | ASPARTATE AMINOTRANSFERASE [3]: 96 u/L | BLOOD UREA NITROGEN [3]: 19.33 mg/dL | CARBON DIOXIDE [3]: 20.67 mmol/L | CHLORIDE [3]: 101.33 MEQ/L | CHOLESTEROL [3]: 45.67 mg/dL | CREATINE PHOSPHOKINASE [3]: 639.33 u/L | CREATININE [3]: 0.14 mg/dL | GLUCOSE [3]: 174 mg/dL | LACTATE DEHYDROGENASE [3]: 123 u/L | LIPASE [3]: 24.67 u/L | PHOSPHORUS [3]: 11.63 mg/dL | POTASSIUM [3]: 6.15 MEQ/L | SODIUM [3]: 142.57 MEQ/L | TOTAL BILIRUBIN [3]: 0.23 mg/dL | TOTAL PROTEIN [3]: 6.43 G/DL | URIC ACID [3]: 1.47 mg/dL | ABSOLUTE BASOPHIL [4]: 0 CELLS/uL | ABSOLUTE EOSINOPHIL [4]: 0 CELLS/uL | ABSOLUTE LYMPHOCYTE [4]: 10059.67 CELLS/uL | ABSOLUTE MONOCYTE [4]: 397 CELLS/uL | ABSOLUTE SEGMENTED NEUTROPHIL [4]: 1576.67 CELLS/uL | BASOPHIL [4]: 0% | EOSINOPHIL [4]: 0% | ERYTHROCYTE COUNT [4]: 6.01 x10E6/uL | HEMATOCRIT [4]: 38.4% | HEMOGLOBIN [4]: 14.77 G/DL | LEUKOCYTE COUNT [4]: 12.03 x10E3/uL | LYMPHOCYTE [4]: 83.33% | MEAN CORPUSCULAR HEMOGLOBIN [4]: 24.57 pg | MEAN CORPUSCULAR HEMOGLOBIN CONCENTRATION [4]: 38.5 G/DL | MEAN CORPUSCULAR VOLUME [4]: 63.9 fL | MONOCYTE [4]: 3.33% | NEUTROPHIL [4]: 13.33% | NUCLEATED RED BLOOD CELLS [4]: 0.33 /100WBC | PLATELET COUNT [4]: 1300 x10E3/uL | ALANINE AMINOTRANSFERASE [4]: 78.67 u/L | ALBUMIN [4]: 4.23 G/DL | ALKALINE PHOSPHATASE [4]: 452.67 u/L | ASPARTATE AMINOTRANSFERASE [4]: 86.67 u/L | BLOOD UREA NITROGEN [4]: 10.67 mg/dL | CARBON DIOXIDE [4]: 27 mmol/L | CHLORIDE [4]: 100.67 MEQ/L | CHOLESTEROL [4]: 56 mg/dL | CREATINE PHOSPHOKINASE [4]: 230.33 u/L | CREATININE [4]: 0.11 mg/dL | GLUCOSE [4]: 169.67 mg/dL | LACTATE DEHYDROGENASE [4]: 181.33 u/L | LIPASE [4]: 6.67 u/L | PHOSPHORUS [4]: 11.83 mg/dL | POTASSIUM [4]: 5.55 MEQ/L | SODIUM [4]: 141.67 MEQ/L | TOTAL BILIRUBIN [4]: 0.2 mg/dL | TOTAL PROTEIN [4]: 6.23 G/DL | URIC ACID [4]: 1.3 mg/dL
